ChEMBL document CHEMBL1201862, “PubChem BioAssay data set” (2004)
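How tested: cells in 96-well plates exposed to compound for 48 hours at five concentrations. GI50 marks 50% less growth.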 Calls of active or inactive are those of the source. Rule as the data show it: active = GI50 up to about 1.1 µM and inactive = higher.

How the values were obtained:
Assay in all cases: inhibition of tumour cell growth, NCI panel, 48 h
MOLT-4 = test system: MOLT-4
EKVX = test system: EKVX
SK-MEL-28 = test system: SK-MEL-28
KM12 = test system: KM12
HCT-15 = test system: HCT-15
HOP-62 = test system: HOP-62
SF-295 = test system: SF-295
UO-31 = test system: UO-31
A549 = test system: A549
SF-268 = test system: SF-268
Malme-3M = test system: Malme-3M
Hs-578T = test system: Hs-578T
HT-29 = test system: HT-29
LOX IMVI = test system: LOX IMVI
DU-145 = test system: DU-145
COLO 205 = test system: COLO 205
MDA-N = test system: MDA-N
UACC-257 = test system: UACC-257
OVCAR-5 = test system: OVCAR-5
SNB-19 = test system: SNB-19
OVCAR-8 = test system: OVCAR-8
CCRF-CEM = test system: CCRF-CEM
CAKI-1 = test system: CAKI-1
SK-OV-3 = test system: SK-OV-3
PC-3 = test system: PC-3
IGROV-1 = test system: IGROV-1
SR = test system: SR
NCI-H226 = test system: NCI-H226
BT-549 = test system: BT-549
UACC-62 = test system: UACC-62
RPMI-8226 = test system: RPMI-8226
MDA-MB-435 = test system: MDA-MB-435
U-251 = test system: U-251
M14 = test system: M14
A498 = test system: A498
RXF 393 = test system: RXF 393
786-0 = test system: 786-0
NCI/ADR-RES = test system: NCI/ADR-RES
SW-620 = test system: SW-620
MDA-MB-231 = test system: MDA-MB-231
HL-60 = test system: HL-60
SN12C = test system: SN12C
HCT-116 = test system: HCT-116
MCF7 = test system: MCF7
HOP-92 = test system: HOP-92
SF-539 = test system: SF-539
K562 = test system: K562
OVCAR-3 = test system: OVCAR-3
NCI-H23 = test system: NCI-H23
T47D = test system: T47D
OVCAR-4 = test system: OVCAR-4
TK-10 = test system: TK-10
NCI-H522 = test system: NCI-H522
SNB-75 = test system: SNB-75
NCI-H460 = test system: NCI-H460
SK-MEL-2 = test system: SK-MEL-2
SK-MEL-5 = test system: SK-MEL-5
ACHN = test system: ACHN

CN1CCN(c2ccc(-n3cc(C(=O)O)c(=O)c4cc(F)c(N5CCN(C)CC5)cc43)nc2)CC1
GI50 (MOLT-4): > 100 µM (inactive) | GI50 (EKVX): > 100 µM (inactive) | GI50 (SK-MEL-28): > 100 µM (inactive) | GI50 (KM12): 33.6 µM (inactive) | GI50 (HCT-15): > 100 µM | GI50 (HOP-62): > 100 µM (inactive) | GI50 (SF-295): > 100 µM (inactive) | GI50 (UO-31): > 100 µM (inactive) | GI50 (A549): > 100 µM (inactive) | GI50 (SF-268): > 100 µM (inactive) | GI50 (Malme-3M): 95.5 µM (inactive) | GI50 (Hs-578T): > 100 µM (inactive) | GI50 (HT-29): 65.5 µM (inactive) | GI50 (LOX IMVI): > 100 µM (inactive) | GI50 (DU-145): > 100 µM (inactive) | GI50 (COLO 205): 25.4 µM (inactive) | GI50 (MDA-N): > 100 µM (inactive) | GI50 (UACC-257): > 100 µM (inactive) | GI50 (OVCAR-5): > 100 µM (inactive) | GI50 (SNB-19): > 100 µM (inactive) | GI50 (OVCAR-8): 85.1 µM (inactive) | GI50 (CCRF-CEM): > 100 µM (inactive) | GI50 (CAKI-1): > 100 µM (inactive) | GI50 (SK-OV-3): > 100 µM (inactive) | GI50 (PC-3): > 100 µM (inactive) | GI50 (IGROV-1): > 100 µM (inactive) | GI50 (SR): > 100 µM (inactive) | GI50 (NCI-H226): > 100 µM (inactive) | GI50 (BT-549): 80 µM (inactive) | GI50 (UACC-62): > 100 µM (inactive) | GI50 (RPMI-8226): > 100 µM (inactive) | GI50 (MDA-MB-435): > 100 µM (inactive) | GI50 (U-251): > 100 µM (inactive) | GI50 (M14): > 100 µM (inactive) | GI50 (A498): > 100 µM (inactive) | GI50 (RXF 393): > 100 µM (inactive) | GI50 (786-0): 64.7 µM (inactive) | GI50 (NCI/ADR-RES): > 100 µM (inactive) | GI50 (SW-620): 56.2 µM (inactive) | GI50 (MDA-MB-231): > 100 µM (inactive) | GI50 (HL-60): > 100 µM (inactive) | GI50 (SN12C): > 100 µM (inactive) | GI50 (HCT-116): 69.3 µM (inactive) | GI50 (MCF7): > 100 µM (inactive) | GI50 (HOP-92): > 100 µM (inactive) | GI50 (SF-539): > 100 µM (inactive) | GI50 (K562): 62.8 µM (inactive) | GI50 (OVCAR-3): > 100 µM (inactive) | GI50 (NCI-H23): > 100 µM (inactive) | GI50 (T47D): > 100 µM (inactive) | GI50 (OVCAR-4): > 100 µM (inactive) | GI50 (TK-10): > 100 µM (inactive) | GI50 (NCI-H522): 78.5 µM (inactive) | GI50 (SNB-75): > 100 µM (inactive) | GI50 (NCI-H460): > 100 µM (inactive)

COc1cccc(N2C(=O)CS(=O)(=O)C2c2cccc(Oc3ccccc3)c2)c1 (stereo unspecified)
GI50 (MOLT-4): 21.3 µM (inactive) | GI50 (EKVX): 17 µM (inactive) | GI50 (SK-MEL-28): 34 µM (inactive) | GI50 (KM12): 7.67 µM (inactive) | GI50 (HCT-15): 5.27 µM | GI50 (HOP-62): 25.2 µM (inactive) | GI50 (SK-MEL-2): 14.2 µM (inactive) | GI50 (SF-295): 16 µM (inactive) | GI50 (UO-31): 34.4 µM (inactive) | GI50 (A549): 26.7 µM (inactive) | GI50 (SF-268): 24.4 µM (inactive) | GI50 (Malme-3M): 15.9 µM (inactive) | GI50 (Hs-578T): 21.8 µM (inactive) | GI50 (HT-29): 13.1 µM (inactive) | GI50 (LOX IMVI): 17.1 µM (inactive) | GI50 (DU-145): 38.5 µM (inactive) | GI50 (COLO 205): 6 µM (inactive) | GI50 (MDA-N): 2.38 µM (inactive) | GI50 (UACC-257): 15.3 µM (inactive) | GI50 (OVCAR-5): 34 µM (inactive) | GI50 (SNB-19): 27.1 µM (inactive) | GI50 (OVCAR-8): 21.6 µM (inactive) | GI50 (CCRF-CEM): 26.9 µM (inactive) | GI50 (CAKI-1): 26.1 µM (inactive) | GI50 (SK-OV-3): 38 µM (inactive) | GI50 (PC-3): 9.98 µM (inactive) | GI50 (SR): 3.13 µM (inactive) | GI50 (SK-MEL-5): 7.11 µM (inactive) | GI50 (NCI-H226): 19.1 µM (inactive) | GI50 (BT-549): 20.1 µM (inactive) | GI50 (UACC-62): 6.1 µM (inactive) | GI50 (MDA-MB-435): 3.56 µM (inactive) | GI50 (U-251): 16.7 µM (inactive) | GI50 (M14): 15.4 µM (inactive) | GI50 (A498): 10.1 µM (inactive) | GI50 (RXF 393): 16.5 µM (inactive) | GI50 (786-0): 16.9 µM (inactive) | GI50 (ACHN): 20.1 µM (inactive) | GI50 (NCI/ADR-RES): 9.42 µM (inactive) | GI50 (SW-620): 15.6 µM (inactive) | GI50 (MDA-MB-231): 30.4 µM (inactive) | GI50 (HL-60): 11 µM (inactive) | GI50 (SN12C): 17.6 µM (inactive) | GI50 (HCT-116): 11.1 µM (inactive) | GI50 (MCF7): 3.04 µM (inactive) | GI50 (HOP-92): 12.7 µM (inactive) | GI50 (SF-539): 15.1 µM (inactive) | GI50 (K562): 3.6 µM (inactive) | GI50 (OVCAR-3): 19.5 µM (inactive) | GI50 (NCI-H23): 23.4 µM (inactive) | GI50 (T47D): 19.1 µM (inactive) | GI50 (OVCAR-4): 28.6 µM (inactive) | GI50 (TK-10): 16.5 µM (inactive) | GI50 (NCI-H522): 6.53 µM (inactive) | GI50 (SNB-75): 15.6 µM (inactive) | GI50 (NCI-H460): 13.6 µM (inactive)
